Laboratory results as given in patent US9126999B2, “Tetrahydropyrazolopyrimidine compounds” (EISAI R&D MANAGEMENT CO., LTD., priority 2012, dated 2015).

Legend:
[1] = target: T1, Human TLR7 (Homo sapiens, UniProt Q9NYK1); test: HEK-293 NF-kappaB luciferase reporter assay, CL097 stimulus; assay type: cell-based; settings: ligand CL097, analyte NFkB-luciferase
T1 construct: engineered to stably and individually express human TLR4, TLR7 or TLR9 full-length ORF cDNAs; host or cells: HEK-293 (ATCC) with ELAM-1 NF-kappaB luciferase reporter
T1 sequence (Q9NYK1 27-1049): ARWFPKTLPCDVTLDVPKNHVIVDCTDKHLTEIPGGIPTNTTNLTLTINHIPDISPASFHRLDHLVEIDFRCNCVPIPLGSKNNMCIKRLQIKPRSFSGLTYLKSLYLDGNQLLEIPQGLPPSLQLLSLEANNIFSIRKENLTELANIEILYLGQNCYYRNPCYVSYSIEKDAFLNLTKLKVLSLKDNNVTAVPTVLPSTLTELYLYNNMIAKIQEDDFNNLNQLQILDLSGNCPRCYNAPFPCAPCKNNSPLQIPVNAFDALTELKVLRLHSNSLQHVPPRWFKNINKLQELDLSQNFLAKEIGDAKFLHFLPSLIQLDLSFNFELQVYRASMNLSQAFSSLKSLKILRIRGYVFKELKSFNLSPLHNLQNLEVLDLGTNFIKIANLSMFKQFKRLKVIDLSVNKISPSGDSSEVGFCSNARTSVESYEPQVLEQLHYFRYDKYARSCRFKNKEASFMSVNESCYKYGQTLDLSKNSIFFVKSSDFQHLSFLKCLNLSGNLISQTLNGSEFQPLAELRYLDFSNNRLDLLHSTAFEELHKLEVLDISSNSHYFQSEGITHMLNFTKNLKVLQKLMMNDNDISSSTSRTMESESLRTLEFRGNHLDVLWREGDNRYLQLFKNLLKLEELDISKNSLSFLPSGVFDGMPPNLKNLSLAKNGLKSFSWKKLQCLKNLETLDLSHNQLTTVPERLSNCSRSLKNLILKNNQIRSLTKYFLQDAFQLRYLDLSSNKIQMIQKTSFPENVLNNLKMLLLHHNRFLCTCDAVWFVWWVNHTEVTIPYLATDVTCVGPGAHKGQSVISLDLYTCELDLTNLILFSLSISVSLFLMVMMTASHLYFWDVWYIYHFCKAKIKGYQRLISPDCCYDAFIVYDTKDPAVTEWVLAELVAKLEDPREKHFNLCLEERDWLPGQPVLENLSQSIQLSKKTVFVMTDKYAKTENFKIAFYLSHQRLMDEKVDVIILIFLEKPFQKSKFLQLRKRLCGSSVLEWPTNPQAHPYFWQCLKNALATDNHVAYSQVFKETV
From the text: (§1) In vitro pharmacology: HEK-293 cells (ATCC) were engineered to stably express a NF-kappaB transcription factor inducible E-selectin (ELAM-1) luciferase reporter derived from the plasmid pGL3 (Promega) containing base pairs −2241 bp to −254 bp from the promoter of the human E-selectin gene (Accession No. NM_000450). These cells were then subsequently engineered to stably and individually express human TLR4, TLR7 or TLR9 full-length ORF cDNAs. Human TLR4 cDNA (Accession No. NM_138554) was cloned into pcDNA 3.0 expression vector (Invitrogen). TLR4 transfected cells were also engineered to express human MD-2 co-receptor [MD-2 cDNA (Accession No. NM_015364) was cloned into the pEF-BOS vector] and were supplemented with 10 nM soluble CD14 (R&D Systems) in the media to optimize LPS responsiveness. Human TLR9 cDNA (Accession No. NM_017442) was cloned into the pBluescript II KS vector (Agilent). Human TLR7 cDNA (Accession No. NM_016562) was obtained from OriGene. HEK-293 cells stably expressing human TLR8 (Accession No. NM_138636) or mouse TLR7 (Accession No. NM_133211) were purchased from InvivoGen and were then stably transfected with pNiFty2(NF-kappaB)-luciferase reporter plasmid (InvivoGen). Each cell type was plated in Dulbecco's modified Eagle's medium (DMEM) containing 10% fetal bovine serum (FBS) at a density of 2.22×10^5 cells/ml into a 384-well plate and incubated for 2 days at 37° C., 5% CO2. Varying concentrations of antagonist compounds were then added. Cells were then incubated for another 30 minutes before adding the appropriate TLR agonist as follows (final concentrations indicated): lipopolysaccharide (LPS; Sigma) at 10 ng/ml for TLR4, CL097 (InvivoGen) at 3 ug/ml for human TLR7 and TLR8 and mouse TLR7, and CpG-2006-2A [sequence: […] (SEQ ID NO: 1) with phosphorothioate backbone, synthesized by Sigma-Aldrich] at 0.6 uM for TLR9.

[2] = target: T2, Mouse TLR7 (Mus musculus, UniProt P58681); test: as above; assay type: cell-based; settings: ligand CL097, analyte NFkB-luciferase
T2 construct: endogenous in cells; host or cells: female BALB/c mice, in vivo
T2 sequence (P58681 27-1050): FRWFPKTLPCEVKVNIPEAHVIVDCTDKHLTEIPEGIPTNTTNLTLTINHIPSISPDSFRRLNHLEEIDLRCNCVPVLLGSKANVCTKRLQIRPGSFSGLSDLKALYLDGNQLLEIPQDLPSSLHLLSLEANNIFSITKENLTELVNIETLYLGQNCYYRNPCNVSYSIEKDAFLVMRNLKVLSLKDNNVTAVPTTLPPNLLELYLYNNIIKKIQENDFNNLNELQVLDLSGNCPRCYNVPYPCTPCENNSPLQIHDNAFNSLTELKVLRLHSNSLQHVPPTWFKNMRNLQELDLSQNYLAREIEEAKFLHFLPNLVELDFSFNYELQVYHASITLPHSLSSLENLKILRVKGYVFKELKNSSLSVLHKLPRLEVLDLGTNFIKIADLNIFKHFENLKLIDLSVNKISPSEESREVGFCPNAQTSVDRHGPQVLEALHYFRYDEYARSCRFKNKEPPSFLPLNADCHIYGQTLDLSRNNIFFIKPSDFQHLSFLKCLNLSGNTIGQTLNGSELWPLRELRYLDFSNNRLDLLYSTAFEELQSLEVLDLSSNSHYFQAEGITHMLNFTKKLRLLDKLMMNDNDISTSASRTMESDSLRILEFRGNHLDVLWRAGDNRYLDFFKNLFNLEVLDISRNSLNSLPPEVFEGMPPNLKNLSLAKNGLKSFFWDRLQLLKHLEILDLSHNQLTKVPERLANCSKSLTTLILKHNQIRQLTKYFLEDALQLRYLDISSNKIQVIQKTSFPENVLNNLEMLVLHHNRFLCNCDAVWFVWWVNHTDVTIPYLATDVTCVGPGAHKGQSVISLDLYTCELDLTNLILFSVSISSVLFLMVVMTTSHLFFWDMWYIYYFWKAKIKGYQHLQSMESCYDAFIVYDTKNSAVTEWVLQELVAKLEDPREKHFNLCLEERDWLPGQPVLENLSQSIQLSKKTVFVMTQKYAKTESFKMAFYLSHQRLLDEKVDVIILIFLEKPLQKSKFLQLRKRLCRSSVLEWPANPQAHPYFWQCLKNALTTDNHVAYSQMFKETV
From the text: as §1

With `COc1ccc([C@@H]2C[C@H](C(F)(F)F)n3nc(-c4ccc(C(=O)N5CCNCC5)cc4)cc3N2)cc1OC` [ER-892887, (4-((5S,7R)-5-(3,4-dimethoxyphenyl)-7-(trifluoromethyl)-4,5,6,7-tetrahydropyrazolo[1,5-a]pyrimidin-2-yl)phenyl)(piperazin-1-yl)methanone] the IC50 [1] was 10 nM and the IC50 [2] was 276 nM.
